# Assay results taken from ChEMBL document CHEMBL1201862, “PubChem BioAssay data set” (2004).
# The source made the active and inactive calls.
# Tests used:
# Beta-galactosidase = Beta-galactosidase (Escherichia coli, UniProt Q8VNN2); assay: Dose response counterscreen for EBI2 assay utilizing the enzyme, b-galactosidase.; type: functional
# [1] = THP-1 cell cytotoxicity, dose response, cytotoxicity control for non-replicating M. tuberculosis project (AID 489025); type: functional
# [2] = Vero E6 cell cytotoxicity, dose response, cytotoxicity control for non-replicating M. tuberculosis project, secondary assay (AID 492998); type: functional, VeroE6; conditions: Vero C1008
# cells = type: functional
# [3] = target: Nuclear receptor subfamily 5 group A member 2 (Homo sapiens, UniProt O00482); type: functional, cell-based;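 also: HEK293T cells transfected with LRH-1 and a StAR promoter luciferase reporter; potency for inhibitors that lower LRH-1 driven reporter light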
# Sequence of Nuclear receptor subfamily 5 group A member 2 (O00482 whole entry): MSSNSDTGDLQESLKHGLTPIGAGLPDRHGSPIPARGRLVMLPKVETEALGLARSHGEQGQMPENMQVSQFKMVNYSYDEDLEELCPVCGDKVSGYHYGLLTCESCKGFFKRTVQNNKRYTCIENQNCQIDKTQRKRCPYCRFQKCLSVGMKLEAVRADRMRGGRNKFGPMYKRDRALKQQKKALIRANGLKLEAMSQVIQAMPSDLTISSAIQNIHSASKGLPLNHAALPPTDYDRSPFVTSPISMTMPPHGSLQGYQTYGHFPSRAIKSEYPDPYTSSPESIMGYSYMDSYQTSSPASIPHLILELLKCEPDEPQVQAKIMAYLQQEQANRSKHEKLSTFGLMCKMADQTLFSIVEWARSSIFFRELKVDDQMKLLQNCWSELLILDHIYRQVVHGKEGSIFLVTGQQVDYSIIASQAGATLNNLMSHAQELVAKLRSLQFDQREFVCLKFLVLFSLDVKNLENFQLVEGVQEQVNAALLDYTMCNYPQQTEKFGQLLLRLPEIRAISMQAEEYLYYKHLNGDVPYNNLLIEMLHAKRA
# Steroidogenic factor 1 = Steroidogenic factor 1 (Homo sapiens, UniProt Q13285); assay: Counterscreen for inverse agonists of the liver receptor homolog-1 (LRH-1; NR5A2): Luminescence-based cell-based high throughput dose response assay to identify inverse agonists of the Steroidogenic Factor 1 Nuclear Receptor (SF1; NR5A1).; type: functional
# Sequence of Steroidogenic factor 1 (Q13285 whole entry): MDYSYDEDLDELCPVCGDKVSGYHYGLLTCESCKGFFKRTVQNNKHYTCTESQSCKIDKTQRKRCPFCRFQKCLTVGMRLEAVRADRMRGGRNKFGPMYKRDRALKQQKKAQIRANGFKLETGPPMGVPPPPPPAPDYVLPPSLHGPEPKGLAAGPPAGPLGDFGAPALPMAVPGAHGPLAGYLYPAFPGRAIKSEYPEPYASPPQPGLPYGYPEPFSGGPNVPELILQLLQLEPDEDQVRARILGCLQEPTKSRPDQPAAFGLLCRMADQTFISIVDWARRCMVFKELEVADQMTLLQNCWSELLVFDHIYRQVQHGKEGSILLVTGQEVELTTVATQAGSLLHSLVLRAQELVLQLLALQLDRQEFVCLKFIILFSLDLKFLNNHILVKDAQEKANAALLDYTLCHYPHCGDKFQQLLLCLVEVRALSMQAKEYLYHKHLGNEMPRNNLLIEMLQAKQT
# [4] = StAR promoter reporter inhibition counter-screen, dose response, counter-screen for LRH-1 inverse agonist project, cell-based, luminescence, luciferase reporter (AID 651969); type: functional
# [5] = NIH-3T3 fibroblast cytotoxicity, dose response, cytotoxicity control, cell-based, fluorescence, Alamar Blue, secondary assay (AID 2327); type: functional;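 also: NIH-3T3 mouse fibroblasts cultured with fluconazole at 8 µg/mL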
# [6] = C. albicans growth with fluconazole, confirmation, fluorescence, retest (AID 2467); type: functional, cell-based
# [7] = target: T1, Long-chain-fatty-acid--AMP ligase FadD28 (Mycobacterium tuberculosis, UniProt P9WQ59); assay: Fluorescence polarization aasay to screen for inhibitors that compete for the binding of FadD28 to a bisubstrate Measured in Biochemical System Using Plate Reader - 2147-01_Inhibitor_Dose_CherryPick_Activity.; type: functional, Mycobacterium tuberculosis H37Rv
# T1 sequence (P9WQ59 whole entry): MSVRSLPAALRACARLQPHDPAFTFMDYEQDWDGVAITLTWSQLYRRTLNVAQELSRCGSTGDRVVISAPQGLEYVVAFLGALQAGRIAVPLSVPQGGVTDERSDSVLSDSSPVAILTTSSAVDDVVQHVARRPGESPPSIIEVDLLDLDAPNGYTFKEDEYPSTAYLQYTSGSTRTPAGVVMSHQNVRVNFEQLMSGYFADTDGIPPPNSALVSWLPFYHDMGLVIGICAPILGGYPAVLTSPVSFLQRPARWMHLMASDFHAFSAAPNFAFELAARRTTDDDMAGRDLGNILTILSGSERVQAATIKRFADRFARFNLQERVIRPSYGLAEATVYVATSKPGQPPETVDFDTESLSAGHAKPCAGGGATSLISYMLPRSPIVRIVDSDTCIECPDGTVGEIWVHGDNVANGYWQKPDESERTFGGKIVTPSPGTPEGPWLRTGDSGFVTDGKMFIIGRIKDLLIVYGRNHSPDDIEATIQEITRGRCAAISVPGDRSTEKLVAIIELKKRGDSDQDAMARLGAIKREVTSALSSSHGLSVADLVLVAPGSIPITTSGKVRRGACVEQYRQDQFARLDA
# [8] = off-target signal loss in HeLa-CEM21 co-culture – HeLa F-luc CTL cells, cherry-picked, counter-screen for HIV-1 Env fusion inhibitor project, dose response (AID 652040); type: functional, cell-based;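 also: potency for signal decrease marking cytotoxic or nonspecific inhibition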
# [9] = inhibitors of HIV Env-driven cell fusion, dose response, cherry-pick (AID 652057); type: functional, cell-based
# [10] = ZM109 Env clade C HIV-1 fusion inhibitors, dose response, HeLa effector, CEM target cells, luciferase, cherry-pick (AID 652058); type: functional, cell-based
# [11] = inhibitors of clade B AD8 Env fusion, dose response, cell-based, cherry-pick (AID 652062); type: functional;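 also: luciferase signal from cell-cell fusion driven by HIV-1 clade B AD8 Env; potency is for inhibitors of fusion seen as a drop in luminescence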
# [12] = tested on: Streptococcus sp. 'group A'; assay: growth inhibition of control SK(-) GAS strain, dose response, counter-screen for streptokinase expression inhibitor project, luminescence, kanamycin, BacTiterGlo, confirmation (AID 1900); type: functional, organism-based
# Streptococcus = assay: Group A Streptococcus viability loss, dose response, counter-screen for streptokinase expression inhibitor project, luminescence, BacTiterGlo (AID 1915); type: functional, organism-based;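 also: potency for reduction of bacterial viability or growth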
# [13] = CEM21 lymphoblast cell cytotoxicity, dose response, cytotoxicity control for viral fusion inhibitor project, CellTiter-Glo luminescence, cherry-picked (AID 652042); type: functional, cell-based;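 also: potency for signal decrease meaning cytotoxicity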
# [14] = target: T2, Short transient receptor potential channel 4 (Mus musculus, UniProt Q9QUQ5); assay: mouse TRPC4 channel inhibitors, dose response, cell-based, HEK293 TRPC4/mu-opioid, Fluo-4 calcium (AID 434942); type: functional;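 also: potency of inhibitors blocking the TRPC4 calcium response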
# T2 sequence (Q9QUQ5 whole entry): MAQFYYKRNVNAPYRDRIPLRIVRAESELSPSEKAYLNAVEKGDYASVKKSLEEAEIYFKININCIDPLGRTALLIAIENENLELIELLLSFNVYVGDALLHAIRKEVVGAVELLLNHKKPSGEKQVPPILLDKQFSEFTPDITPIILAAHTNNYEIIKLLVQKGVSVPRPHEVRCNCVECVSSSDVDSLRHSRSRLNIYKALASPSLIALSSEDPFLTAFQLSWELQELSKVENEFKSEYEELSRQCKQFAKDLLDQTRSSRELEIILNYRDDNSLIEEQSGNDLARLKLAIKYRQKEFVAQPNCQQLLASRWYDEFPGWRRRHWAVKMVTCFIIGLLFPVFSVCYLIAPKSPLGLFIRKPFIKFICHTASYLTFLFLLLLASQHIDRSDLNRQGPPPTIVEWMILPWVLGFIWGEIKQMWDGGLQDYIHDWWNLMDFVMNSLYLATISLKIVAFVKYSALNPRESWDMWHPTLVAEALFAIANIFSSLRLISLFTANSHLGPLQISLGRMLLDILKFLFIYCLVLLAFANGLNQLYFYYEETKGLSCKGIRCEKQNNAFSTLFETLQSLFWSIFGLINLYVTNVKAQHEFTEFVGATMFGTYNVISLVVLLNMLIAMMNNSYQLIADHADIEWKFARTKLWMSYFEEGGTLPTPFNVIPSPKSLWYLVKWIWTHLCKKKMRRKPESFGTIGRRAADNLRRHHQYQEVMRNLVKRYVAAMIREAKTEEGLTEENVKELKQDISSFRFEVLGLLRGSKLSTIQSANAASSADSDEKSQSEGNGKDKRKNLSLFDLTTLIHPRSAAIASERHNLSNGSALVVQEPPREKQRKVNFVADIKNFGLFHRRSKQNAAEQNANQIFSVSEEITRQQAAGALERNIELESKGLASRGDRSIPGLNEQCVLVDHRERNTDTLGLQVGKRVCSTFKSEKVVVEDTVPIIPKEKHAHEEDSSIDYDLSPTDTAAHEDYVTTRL
# Troponin, cardiac muscle = Troponin, cardiac muscle (Homo sapiens, UniProt P19429+P45379+P63316); assay: Fluorescence-based biochemical high throughput dose response assay for activators of the calcium sensitivity of cardiac Regulated Thin Filaments (RTF). [Related pubchem assays (depositor defined):AID493008, AID493018, AID504382, AID504383]; type: protein-complex assay
# [15] = target: T3, Corticotropin-releasing factor receptor 2/Corticotropin-releasing factor-binding protein (Homo sapiens, UniProt P24387+Q13324); assay: Dose Response confirmation of uHTS hits for small molecule antagonists of the CRF-binding protein and CRF-R2 receptor complex.; type: functional; conditions: read-out: IC50_Mean
# T3 sequence (Q13324 whole entry): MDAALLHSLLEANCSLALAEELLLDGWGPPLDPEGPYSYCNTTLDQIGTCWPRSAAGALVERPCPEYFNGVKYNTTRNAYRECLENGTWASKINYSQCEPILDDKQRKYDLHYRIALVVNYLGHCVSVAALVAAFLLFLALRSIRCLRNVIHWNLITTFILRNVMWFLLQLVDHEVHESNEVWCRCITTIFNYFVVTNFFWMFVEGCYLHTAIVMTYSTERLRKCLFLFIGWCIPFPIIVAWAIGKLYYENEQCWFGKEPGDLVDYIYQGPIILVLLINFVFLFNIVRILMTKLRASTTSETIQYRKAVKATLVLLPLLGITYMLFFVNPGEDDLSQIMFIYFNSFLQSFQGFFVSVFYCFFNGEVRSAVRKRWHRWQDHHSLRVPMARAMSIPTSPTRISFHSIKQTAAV
# T3 sequence (P24387 whole entry): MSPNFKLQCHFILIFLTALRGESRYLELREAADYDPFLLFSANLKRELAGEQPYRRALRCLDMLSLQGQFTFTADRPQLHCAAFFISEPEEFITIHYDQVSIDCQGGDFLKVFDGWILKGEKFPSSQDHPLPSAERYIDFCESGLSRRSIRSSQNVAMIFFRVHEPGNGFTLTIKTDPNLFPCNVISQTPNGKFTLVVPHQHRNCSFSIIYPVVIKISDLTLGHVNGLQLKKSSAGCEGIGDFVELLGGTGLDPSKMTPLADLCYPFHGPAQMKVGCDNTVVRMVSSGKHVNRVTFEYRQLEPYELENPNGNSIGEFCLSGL
# [16] = target: T3, Corticotropin-releasing factor receptor 2/Corticotropin-releasing factor-binding protein; assay: activators of CRF receptor 2 with binding protein – uHTS hits, confirmation (AID 602473); type: functional; conditions: read-out: EC50_Mean
# [17] = CRF-BP/CRF-R2 complex antagonists, dose response, cell-based, uHTS hits, 384-well (AID 651639); type: functional, Homo sapiens; conditions: read-out: IC50_Mean
# [18] = target: T4, Rac GTPase-activating protein 1 (Homo sapiens, UniProt Q9H0H5); assay: MgcRacGAP GTPase-activating activity inhibitors, confirmation, biochemical, ADP Hunter fluorescence, primary and confirmatory (AID 624330); type: functional
# T4 sequence (Q9H0H5 whole entry): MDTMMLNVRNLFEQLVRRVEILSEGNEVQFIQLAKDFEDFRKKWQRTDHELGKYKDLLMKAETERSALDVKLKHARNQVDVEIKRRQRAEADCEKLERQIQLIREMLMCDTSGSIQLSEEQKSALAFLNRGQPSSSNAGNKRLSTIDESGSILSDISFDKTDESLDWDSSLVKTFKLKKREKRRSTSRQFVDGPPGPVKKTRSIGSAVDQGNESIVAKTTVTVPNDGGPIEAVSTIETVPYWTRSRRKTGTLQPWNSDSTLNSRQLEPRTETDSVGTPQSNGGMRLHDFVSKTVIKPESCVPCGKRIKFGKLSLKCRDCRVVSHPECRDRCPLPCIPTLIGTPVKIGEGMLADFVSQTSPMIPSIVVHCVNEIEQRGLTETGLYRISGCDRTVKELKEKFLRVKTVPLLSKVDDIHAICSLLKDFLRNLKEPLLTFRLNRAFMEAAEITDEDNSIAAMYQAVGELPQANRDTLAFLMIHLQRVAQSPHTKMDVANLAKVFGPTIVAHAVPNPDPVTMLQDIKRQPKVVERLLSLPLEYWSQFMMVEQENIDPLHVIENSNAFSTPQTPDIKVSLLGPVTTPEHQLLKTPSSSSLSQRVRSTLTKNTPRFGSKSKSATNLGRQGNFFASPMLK
# [19] = HeLa cell cytotoxicity, dose response, cytotoxicity control for MgcRacGAP inhibitor project (AID 624300); type: functional
# Fatty acid synthase [20] = target: T5, Fatty acid synthase (Homo sapiens, UniProt P49327); assay: FAS thioesterase domain inhibitors, dose response, biochemical, endpoint fluorescence intensity, uHTS hits (AID 624327); type: functional;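 also: fluorescence from hydrolysis of an O-methyl fluorescein acyl ester substrate by the enzyme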
# T5 sequence (P49327 whole entry, the tested form may be a part): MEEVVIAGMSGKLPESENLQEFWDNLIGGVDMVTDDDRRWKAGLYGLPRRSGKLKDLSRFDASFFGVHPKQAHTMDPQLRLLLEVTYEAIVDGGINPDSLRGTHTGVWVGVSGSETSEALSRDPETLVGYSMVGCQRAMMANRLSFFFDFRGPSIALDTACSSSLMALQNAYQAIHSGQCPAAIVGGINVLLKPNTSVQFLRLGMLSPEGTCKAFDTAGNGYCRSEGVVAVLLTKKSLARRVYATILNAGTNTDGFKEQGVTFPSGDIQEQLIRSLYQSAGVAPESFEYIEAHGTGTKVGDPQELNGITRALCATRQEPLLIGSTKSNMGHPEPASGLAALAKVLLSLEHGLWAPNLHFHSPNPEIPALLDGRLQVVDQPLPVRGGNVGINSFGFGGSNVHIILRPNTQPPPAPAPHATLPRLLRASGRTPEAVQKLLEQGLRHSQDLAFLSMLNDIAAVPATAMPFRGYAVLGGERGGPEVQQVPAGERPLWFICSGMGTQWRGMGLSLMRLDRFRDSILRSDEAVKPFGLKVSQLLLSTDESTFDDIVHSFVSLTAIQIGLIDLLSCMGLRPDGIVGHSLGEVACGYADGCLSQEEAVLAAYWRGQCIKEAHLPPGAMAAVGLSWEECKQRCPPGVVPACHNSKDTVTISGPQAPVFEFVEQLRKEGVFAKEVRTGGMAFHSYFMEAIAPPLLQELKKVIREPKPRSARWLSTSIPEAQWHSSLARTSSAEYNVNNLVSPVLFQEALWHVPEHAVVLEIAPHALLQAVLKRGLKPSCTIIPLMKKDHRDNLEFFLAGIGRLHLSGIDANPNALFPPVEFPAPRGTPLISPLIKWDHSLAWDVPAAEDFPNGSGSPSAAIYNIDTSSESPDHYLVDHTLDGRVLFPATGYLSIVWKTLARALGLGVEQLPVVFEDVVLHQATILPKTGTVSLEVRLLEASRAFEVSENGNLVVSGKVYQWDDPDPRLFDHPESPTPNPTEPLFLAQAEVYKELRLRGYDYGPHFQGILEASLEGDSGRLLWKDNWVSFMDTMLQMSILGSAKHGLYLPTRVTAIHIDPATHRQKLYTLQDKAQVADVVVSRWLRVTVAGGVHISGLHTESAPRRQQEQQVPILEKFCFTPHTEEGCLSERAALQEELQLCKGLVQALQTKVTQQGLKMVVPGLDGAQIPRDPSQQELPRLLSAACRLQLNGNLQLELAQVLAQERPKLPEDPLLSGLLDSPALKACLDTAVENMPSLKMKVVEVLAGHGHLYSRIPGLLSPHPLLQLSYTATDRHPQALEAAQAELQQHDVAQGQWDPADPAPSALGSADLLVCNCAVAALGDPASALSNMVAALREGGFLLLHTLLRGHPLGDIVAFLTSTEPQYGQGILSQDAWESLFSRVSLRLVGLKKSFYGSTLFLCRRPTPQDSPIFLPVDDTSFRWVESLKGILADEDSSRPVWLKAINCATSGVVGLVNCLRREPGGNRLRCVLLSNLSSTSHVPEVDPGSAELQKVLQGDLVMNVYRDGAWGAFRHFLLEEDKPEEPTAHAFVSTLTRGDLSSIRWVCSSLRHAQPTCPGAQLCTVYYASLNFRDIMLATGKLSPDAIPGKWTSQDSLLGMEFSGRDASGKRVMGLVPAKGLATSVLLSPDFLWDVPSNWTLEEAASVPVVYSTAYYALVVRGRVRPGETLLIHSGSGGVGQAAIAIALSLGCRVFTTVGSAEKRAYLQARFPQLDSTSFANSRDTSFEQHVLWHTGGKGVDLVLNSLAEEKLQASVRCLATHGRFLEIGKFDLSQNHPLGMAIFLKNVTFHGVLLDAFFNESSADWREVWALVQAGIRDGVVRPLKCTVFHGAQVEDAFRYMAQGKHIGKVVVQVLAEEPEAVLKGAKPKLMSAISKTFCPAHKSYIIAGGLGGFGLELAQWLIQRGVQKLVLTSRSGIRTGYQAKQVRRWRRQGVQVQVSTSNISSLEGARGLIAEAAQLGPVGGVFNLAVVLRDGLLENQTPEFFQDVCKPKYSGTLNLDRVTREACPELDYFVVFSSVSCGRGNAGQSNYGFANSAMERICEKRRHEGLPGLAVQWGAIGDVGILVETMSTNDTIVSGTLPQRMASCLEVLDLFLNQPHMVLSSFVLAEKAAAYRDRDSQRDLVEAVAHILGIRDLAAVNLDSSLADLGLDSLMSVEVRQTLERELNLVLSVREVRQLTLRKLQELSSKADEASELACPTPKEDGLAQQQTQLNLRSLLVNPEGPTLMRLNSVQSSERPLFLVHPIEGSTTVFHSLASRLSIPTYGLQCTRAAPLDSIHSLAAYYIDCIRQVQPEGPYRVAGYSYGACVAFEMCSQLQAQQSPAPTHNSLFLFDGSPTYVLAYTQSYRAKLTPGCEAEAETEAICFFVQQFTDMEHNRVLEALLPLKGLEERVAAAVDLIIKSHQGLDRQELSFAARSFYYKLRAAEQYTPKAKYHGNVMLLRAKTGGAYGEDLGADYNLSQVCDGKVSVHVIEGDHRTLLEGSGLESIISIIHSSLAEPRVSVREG
# Fatty acid synthase [21] = target: T5, Fatty acid synthase; assay: FAS thioesterase domain inhibitors, dose response, biochemical, kinetic fluorescence intensity (AID 624326); type: functional;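 also: rate of fluorescence rise from hydrolysis of a fluorogenic O-methyl fluorescein ester substrate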
# Sequence of Beta-galactosidase (Q8VNN2 whole entry): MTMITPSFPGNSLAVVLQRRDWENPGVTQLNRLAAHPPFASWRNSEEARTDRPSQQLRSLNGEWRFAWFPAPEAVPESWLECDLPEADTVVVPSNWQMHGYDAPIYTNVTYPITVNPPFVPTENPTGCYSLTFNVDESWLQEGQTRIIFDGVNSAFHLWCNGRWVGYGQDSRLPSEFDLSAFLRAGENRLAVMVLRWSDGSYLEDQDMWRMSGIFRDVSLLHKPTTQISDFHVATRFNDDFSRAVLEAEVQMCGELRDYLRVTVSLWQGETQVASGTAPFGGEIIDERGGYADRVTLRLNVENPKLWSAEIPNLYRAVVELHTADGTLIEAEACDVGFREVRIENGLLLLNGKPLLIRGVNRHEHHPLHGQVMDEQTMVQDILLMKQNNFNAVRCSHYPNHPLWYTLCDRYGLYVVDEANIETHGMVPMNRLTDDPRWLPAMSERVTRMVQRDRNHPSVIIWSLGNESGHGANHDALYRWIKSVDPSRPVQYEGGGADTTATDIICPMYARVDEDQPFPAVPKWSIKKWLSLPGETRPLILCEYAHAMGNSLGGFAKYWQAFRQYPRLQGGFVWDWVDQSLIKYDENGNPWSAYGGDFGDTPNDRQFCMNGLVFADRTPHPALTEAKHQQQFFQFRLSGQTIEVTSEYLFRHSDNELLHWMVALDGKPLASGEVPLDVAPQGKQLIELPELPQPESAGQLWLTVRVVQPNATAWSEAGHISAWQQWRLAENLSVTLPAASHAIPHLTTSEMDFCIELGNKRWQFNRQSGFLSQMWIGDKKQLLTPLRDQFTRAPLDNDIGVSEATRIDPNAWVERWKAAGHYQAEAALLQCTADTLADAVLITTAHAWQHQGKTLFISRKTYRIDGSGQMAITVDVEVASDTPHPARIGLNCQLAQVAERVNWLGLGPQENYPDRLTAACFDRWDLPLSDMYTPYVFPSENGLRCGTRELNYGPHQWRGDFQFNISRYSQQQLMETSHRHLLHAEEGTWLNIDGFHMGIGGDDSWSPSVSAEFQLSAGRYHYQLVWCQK
smiles,measurement,setting,value
Cc1ccc(NN=C(S)Nc2ccc(C(C)C)cc2)c(C)c1,IC50,Beta-galactosidase,66.1 µM (inactive)
Cc1onc(-c2ccccc2Cl)c1C(=O)ON=C(N)c1ccc([N+](=O)[O-])o1,CC50,[1],17.9 µM (active)
same,CC50,[2],14.9 µM (active)
same,IC50,cells,2.13 µM (active)
same,IC50,[3],0.495 µM (active)
same,IC50,Steroidogenic factor 1,0.309 µM (active)
same,IC50,[4],35.9 µM (inactive)
Oc1nc(Nc2ccc3c(c2)OCCO3)nnc1Cc1ccccc1,EC50,[5],> 160 µM (inconclusive)
same,EC50,[6],> 38 µM (not active)
same,IC50,[3],35.9 µM (inactive)
same,IC50,Steroidogenic factor 1,1.87 µM (active)
same,IC50,[4],35.9 µM (inactive)
O=C(CN1C(=O)NC2(CCOc3ccccc32)C1=O)c1ccc(Br)cc1 (stereo unspecified),AC50,[7],98.9 µM (active)
Cc1ccc2oc(=O)c3cnn(CC(=O)N(Cc4ccco4)C4CCCCC4)c3c2c1,IC50,Beta-galactosidase,> 80 µM (inactive)
O=C(Nc1cccc(F)c1)c1cc(S(=O)(=O)N2CCC(C(=O)O)CC2)ccc1F,AC50,[8],28.9 µM (active)
O=C(CN(Cc1ccccc1F)S(=O)(=O)c1ccc(Cl)cc1)NCCC1=CCCCC1,AC50,[9],4.11 µM (active)
same,AC50,[10],4.59 µM (active)
same,AC50,[8],6.77 µM (active)
same,AC50,[11],25.6 µM (active)
Cc1onc(-c2ccccc2)c1C(=O)NC(=S)NNC(=O)c1ccc(O)cc1,EC50,[12],0.547 µM (active)
same,EC50,Streptococcus,9.46 µM (active)
same,AC50,[13],67.3 µM (active)
same,AC50,[11],10.5 µM (active)
O=C(O)c1ccc(NC(=S)NC(=O)c2ccc(-c3ccccc3)cc2)cc1,EC50,[5],> 150 µM (inactive)
same,EC50,[6],1.28 µM (active)
same,EC50,[14],4.73 µM (active)
same,EC50,"Troponin, cardiac muscle",> 71.5 µM (inactive)
same,IC50,[15],6.04 µM (active)
same,EC50,[16],> 53 µM (inactive)
same,IC50,[17],5.93 µM (active)
Cc1ccc(OCC(=O)N2CCN(Cc3ccc([N+](=O)[O-])cc3)CC2)cc1,IC50,[18],163 µM (active)
same,IC50,Beta-galactosidase,> 80 µM (inactive)
COc1cc(/C=C2\C(=O)NN(c3ccc(C)cc3)C2=O)cc([N+](=O)[O-])c1O,AC50,[7],86.9 µM (active)
CC(O)(c1ccc(F)c(F)c1)c1nc(-c2ccc(S(C)(=O)=O)cc2)cs1 (stereo unspecified),IC50,[3],11.3 µM (inactive)
same,IC50,Steroidogenic factor 1,1.91 µM (active)
same,IC50,[4],35.8 µM (inactive)
COc1cc(/C=N/NC(=S)NC2CC3CCC2C3)ccc1O (stereo unspecified),CC50,[19],100 µM (active)
same,IC50,[18],48.8 µM (active)
CC1=C(O)C(=O)C(c2c(C)cc(C)c(Br)c2C)=C(O)C1=O,AC50,[7],51.8 µM (active)
same,IC50,Fatty acid synthase [20],10.8 µM (active)
same,IC50,Fatty acid synthase [21],9.46 µM (active)
